pEC50: −log10 of the molar value. Active and inactive are the calls of the source. The rule behind the calls is not given here.
Assays:
[1] = system: Ebolavirus; assay: Antiviral activity against recombinant Ebola virus Mayinga expressing GFP infected in human primary macrophages assessed as reduction in infectivity pretreated for 1 hr followed by viral infection measured after 24 to 48 hrs by imaging analysis; format: functional, organism-based; conditions: Orthoebolavirus, Primary macrophage
[2] = system: HEK293; assay: Cytotoxicity against HEK293 cells incubated for 72 hrs by MTT assay; format: toxicity, cell-based; conditions: human, hek293, 72 h
[3] = Selectivity index, ratio of CC50 for HEK293 cells to EC50 for recombinant Ebola virus Mayinga expressing GFP infected in human HeLa cells with ATP6V0a2 KO; format: toxicity, cell-based; conditions: read-out: Ratio CC50/EC50
[4] = biological target: Voltage-gated inwardly rectifying potassium channel KCNH2 (Homo sapiens, UniProt Q12809); assay: Inhibition of hERG at 10 uM relative to control; format: toxicity
[5] = system: Ebolavirus; assay: Antiviral activity against recombinant Ebola virus Mayinga expressing GFP infected in human HeLa cells with ATP6V0a2 KO assessed as reduction in viral entry into cells pretreated for 1 hr followed by viral infection measured after 24 to 48 hrs by imaging analysis; format: functional, organism-based; conditions: Orthoebolavirus
[6] = Selectivity index, ratio of CC50 for human primary macrophages to EC50 for recombinant Ebola virus Mayinga expressing GFP infected in human primary macrophages; format: toxicity; conditions: read-out: Ratio CC50/EC50
[7] = Tmax in CD-1 mouse at 50 mg/kg, po by LC-MS/MS analysis; format: ADME, organism-based; conditions: in vivo
[8] = Cmax in CD-1 mouse at 50 mg/kg, po by LC-MS/MS analysis; format: ADME, organism-based; conditions: in vivo
[9] = system: A549; assay: Induction of phospholipidosis in NBD-PE-treated human A549 cells at 1 uM incubated for 24 hrs by imaging based analysis; format: functional, cell-based
[10] = AUC (0.25 to 24 hrs) in CD-1 mouse at 50 mg/kg, po by LC-MS/MS analysis; format: ADME, organism-based; conditions: in vivo
[11] = MRT in CD-1 mouse at 50 mg/kg, po by LC-MS/MS analysis; format: ADME, organism-based; conditions: in vivo
[12] = Apparent oral clearance in CD-1 mouse at 50 mg/kg, po by LC-MS/MS analysis; format: ADME, organism-based; conditions: in vivo
[13] = Apparent volume of distribution during terminal phase in CD-1 mouse at 50 mg/kg, po by LC-MS/MS analysis; format: ADME, organism-based; conditions: in vivo, read-out: Vz/F
[14] = Half life in CD-1 mouse at 50 mg/kg, po by LC-MS/MS analysis; format: ADME, organism-based; conditions: in vivo
[15] = AUC (infinity) in CD-1 mouse at 50 mg/kg, po by LC-MS/MS analysis; format: ADME, organism-based; conditions: in vivo

Sequence of Voltage-gated inwardly rectifying potassium channel KCNH2 (Q12809 whole entry): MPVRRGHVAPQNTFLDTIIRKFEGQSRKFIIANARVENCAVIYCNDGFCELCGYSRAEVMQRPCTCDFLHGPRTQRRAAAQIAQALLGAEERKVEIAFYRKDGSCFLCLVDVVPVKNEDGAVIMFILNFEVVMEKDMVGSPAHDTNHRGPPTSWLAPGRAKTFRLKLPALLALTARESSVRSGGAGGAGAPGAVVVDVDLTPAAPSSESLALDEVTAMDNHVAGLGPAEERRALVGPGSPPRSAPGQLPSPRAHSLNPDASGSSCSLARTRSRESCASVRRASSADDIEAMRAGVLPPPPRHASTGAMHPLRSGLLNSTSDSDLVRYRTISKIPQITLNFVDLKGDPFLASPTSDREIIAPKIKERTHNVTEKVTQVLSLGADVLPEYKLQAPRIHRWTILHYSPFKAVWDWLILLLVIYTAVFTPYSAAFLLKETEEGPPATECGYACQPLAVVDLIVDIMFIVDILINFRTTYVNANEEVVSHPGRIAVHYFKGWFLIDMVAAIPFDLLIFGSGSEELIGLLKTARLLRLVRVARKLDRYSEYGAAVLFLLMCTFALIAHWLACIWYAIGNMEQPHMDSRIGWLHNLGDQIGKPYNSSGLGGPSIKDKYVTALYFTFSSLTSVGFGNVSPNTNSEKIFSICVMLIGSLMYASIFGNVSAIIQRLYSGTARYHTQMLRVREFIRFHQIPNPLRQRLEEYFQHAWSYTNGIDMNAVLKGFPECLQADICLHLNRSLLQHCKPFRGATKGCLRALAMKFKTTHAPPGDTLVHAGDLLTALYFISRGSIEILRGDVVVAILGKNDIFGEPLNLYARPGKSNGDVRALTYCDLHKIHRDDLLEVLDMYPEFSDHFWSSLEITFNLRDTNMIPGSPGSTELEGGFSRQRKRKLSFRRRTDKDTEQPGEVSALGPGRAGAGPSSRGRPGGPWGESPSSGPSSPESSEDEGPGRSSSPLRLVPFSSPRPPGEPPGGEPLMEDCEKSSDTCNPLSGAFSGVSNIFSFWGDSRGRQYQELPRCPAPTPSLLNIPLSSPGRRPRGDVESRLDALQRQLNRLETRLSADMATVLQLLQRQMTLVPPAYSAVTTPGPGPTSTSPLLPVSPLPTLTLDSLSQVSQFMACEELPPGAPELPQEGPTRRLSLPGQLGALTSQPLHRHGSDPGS

SMILES	pEC50 [1]	CC50 [2] [nM]	selectivity ratio [3]	inhibition (INH) [4] [%]	pEC50 [5]	selectivity ratio [6]	Tmax [7] [h]	Cmax [8] [nM]	Activity [9]	AUC(0-t) [10] [µM·h]	MRT [11] [h]	CL/F [12] [mL/min]	Vd/F [13] [L]	t1/2 [14] [h]	AUC [15] [µM·h]
COc1cc2c(OCCCN3[C@@H]4CC[C@H]3CN(C)C4)c3c(c(-c4ccc5c(c4)OCO5)c2cc1OC)C(=O)OC3	7.60	71000	> 940	72	7.74	313									
COc1cc2c(OCCCN3CC4CCC(C3)O4)c3c(c(-c4ccc5c(c4)OCO5)c2cc1OC)C(=O)OC3		> 80000	> 190	22	6.90										
COc1cc2c(OCCN3CCN(C)CC3)c3c(c(-c4ccc5c(c4)OCO5)c2cc1OC)C(=O)OC3	7.52	> 80000	300	79	7.44	170									
COc1cc2c(O[C@@H]3O[C@H](C)[C@@H](O)[C@H](O)[C@H]3O)c3c(c(-c4ccc5c(c4)OCO5)c2cc1OC)C(=O)OC3 [PATENTIFLORIN A]	7.07	> 80000	> 59	< 5	6.37	295	0.25	101							
CO/C1=C\C(C)=C\[C@@H](C)[C@@H](O)[C@@H](C)C/C(C)=C/C=C/[C@H](OC)[C@@H]([C@@H](C)[C@@H](O)[C@H](C)[C@@]2(O)C[C@@H](O)[C@H](C)[C@@H](C(C)C)O2)OC1=O [BAFILOMYCIN A1]		37000	470		8.52										
COc1cc2c(OCCCN3CCN(C)CC3)c3c(c(-c4ccc5c(c4)OCO5)c2cc1OC)C(=O)OC3		12000	> 630	75	8.15										
COc1cc2c(OCCCN3CCN(C)C(=O)C3)c3c(c(-c4ccc5c(c4)OCO5)c2cc1OC)C(=O)OC3	6.78	> 80000	> 340	9	7.13	> 150			inactive						
COc1cc2c(OCCCN3CC4CC3CN4C)c3c(c(-c4ccc5c(c4)OCO5)c2cc1OC)C(=O)OC3 (stereo not given)		> 80000	> 210	72	6.94										
COc1cc2c(OCCN3CCOCC3)c3c(c(-c4ccc5c(c4)OCO5)c2cc1OC)C(=O)OC3		> 80000	> 38		6.19										
COc1cc2c(OCCCN3CCN(C(C)=O)CC3)c3c(c(-c4ccc5c(c4)OCO5)c2cc1OC)C(=O)OC3		> 80000	> 590	11	7.38										
COc1cc2c(OCCCN3CC4CCC(C3)N4C)c3c(c(-c4ccc5c(c4)OCO5)c2cc1OC)C(=O)OC3	8.00	> 80000	> 3400	100	8.00	577									
COc1cc2c(OCC(O)CN3CCN(C)CC3)c3c(c(-c4ccc5c(c4)OCO5)c2cc1OC)C(=O)OC3 (stereo not given)	7.48	> 80000	> 420	36	7.27	> 753									
COc1cc2c(OC3CNC3)c3c(c(-c4ccc5c(c4)OCO5)c2cc1OC)C(=O)OC3		> 80000	> 150	89	6.67										
COc1cc2c(OCCCC#N)c3c(c(-c4ccc5c(c4)OCO5)c2cc1OC)C(=O)OC3		> 80000	130	24	7.43		0.5	3560		6.86	5.9	5.18	2.85	6.4	7.191
COC(=O)N1CCN(CC(O)COc2c3c(c(-c4ccc5c(c4)OCO5)c4cc(OC)c(OC)cc24)C(=O)OC3)CC1 (stereo not given)		> 80000	> 740	23	7.39										
COCCN1CCN(CC(O)COc2c3c(c(-c4ccc5c(c4)OCO5)c4cc(OC)c(OC)cc24)C(=O)OC3)CC1 (stereo not given)			> 580	51	7.36										
COc1cc2c(OCC(O)CN3CC4CCC(C3)N4C)c3c(c(-c4ccc5c(c4)OCO5)c2cc1OC)C(=O)OC3 (stereo not given)		> 80000	2000	99	8.15										
COc1cc2c(OCCCN3CCS(=O)(=O)CC3)c3c(c(-c4ccc5c(c4)OCO5)c2cc1OC)C(=O)OC3	6.74	> 80000	> 240	21	6.93	138			inactive						
